# Values of other authors as cited in patent US20210069174A1, “COMPOSITIONS AND METHODS FOR TREATMENT OF CYSTIC FIBROSIS” (Vertex Pharmaceuticals Incorporated, priority 2017, published 2021).
# System: CFTR
# Details: CFTR modulator; disclosed in PCT Publication No. WO 2016/057572
smiles,measurement,value
"CC(C)COc1cc(F)cc(-c2ccc(C(=O)NS(=O)(=O)c3ccccc3)c(N3C[C@@H](C)CC3(C)C)n2)c1 [Compound I, N-(benzenesulfonyl)-6-(3-fluoro-5-isobutoxy-phenyl)-2-[(4S)-2,2,4-trimethylpyrrolidin-1-yl]pyridine-3-carboxamide]",EC30,< 3000 nM
